Test results published in patent publication US20230091047A1 (priority 2019, published 2023).
Where two headings read alike, the source gives them in different places.

Assays:
in vitro = type: cell-based; conditions: human, HepG2 or HepG2.117 cells, mean value; for CC50 at 4 days: 4-days incubation (values marked with *)
Summary of the method: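 Luminescent ATP quantitation served as the viability endpoint following a 3- or 4-day incubation with test compounds.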

[1] = tested on: HBV (HepG2.117 cell line, inducibly HBV producing); assay: Anti-HBV activity: intracellular HBV DNA by real-time PCR in HepG2.117 cells after 3 days of treatment; type: cell-based, hepatitis B virus
Summary of the method: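 Readout is intracellular HBV DNA, measured by real-time PCR with HBV-specific primers and probe after 3 days of exposure to serial compound dilutions. Cells are the stable HepG2.117 line, where HBV replication is induced in the absence of doxycycline.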

[2] = ATPlite, 3-days incubation (not marked with *)
[3] = Hepatitis B virus, HepG2.117, 72 h, HepG2.117 cells, intracellular HBV DNA by real-time PCR, 3 days of treatment, mean value; read-out: EC50 (μM, mean value)
[4] = 3-days incubation (unmarked values), ATPlite viability
[5] = Hepatitis B virus, HepG2.117, 72 h, HepG2.117 cells, 3 days of treatment, intracellular HBV DNA by real-time PCR; mean value; read-out: EC50 (μM, mean value)

| Structure (SMILES) | CC50 at 3 days (in vitro; [2]) | EC50 [1, 3] | other results |
| --- | --- | --- | --- |
| CNC(=O)c1ccc([C@@H](C)Nc2nc3c(c(=O)n2-c2ccc(NC(C)=O)cc2)C[C@@H](C)N(C(=O)c2ccc(Cl)c(Cl)c2)C3)cc1 (single isomer, unassigned) [Compound C528a] | > 50 µM | 3.38 µM |  |
| CNC(=O)c1ccc([C@H](C)Nc2nc3c(c(=O)n2-c2ccc(NC(C)=O)cc2)C[C@@H](C)N(C(=O)c2ccc(Cl)c(Cl)c2)C3)cc1 (single isomer, unassigned) [Compound C528b] | > 50 µM | > 10 µM |  |
| CNC(=O)c1ccc(-n2c(N[C@H](C)c3ccc4[nH]ncc4c3)nc3c(c2=O)C[C@@H](C)N(C(=O)c2ccc(Cl)c(Cl)c2)C3)cc1 (single isomer, unassigned) [Compound C529a] | > 50 µM | 0.16 µM |  |
| CNC(=O)c1ccc(-n2c(N[C@@H](C)c3ccc4[nH]ncc4c3)nc3c(c2=O)C[C@@H](C)N(C(=O)c2ccc(Cl)c(Cl)c2)C3)cc1 (single isomer, unassigned) [Compound C529b] | > 50 µM | 0.72 µM |  |
| CNC(=O)c1ccc([C@@H](C)Nc2nc3c(c(=O)n2-c2ccc(C(=O)NC)cc2)C[C@@H](C)N(C(=O)c2ccc(Cl)c(Cl)c2)C3)cc1 (single isomer, unassigned) [Compound C530a] | > 50 µM | > 7.4 µM |  |
| CNC(=O)c1ccc([C@H](C)Nc2nc3c(c(=O)n2-c2ccc(C(=O)NC)cc2)C[C@@H](C)N(C(=O)c2ccc(Cl)c(Cl)c2)C3)cc1 (single isomer, unassigned) [Compound C530b] | > 50 µM | > 10 µM |  |
| CNC(=O)c1ccc(-n2c(NC(C)C)nc3c(c2=O)C[C@@H](C)N(C(=O)c2ccc(Cl)c(C(F)(F)F)c2)C3)c(Cl)c1 (single isomer, unassigned) [Compound C639a] | > 50 µM | 0.02 µM |  |
| CNC(=O)c1ccc(-n2c(N[C@H](C)c3ccc4[nH]cnc4c3)nc3c(c2=O)C[C@@H](C)N(C(=O)c2ccc(Cl)c(Cl)c2)C3)cc1 (single isomer, unassigned) [Compound C647a] | > 50 µM | > 2.5 µM |  |
| CNC(=O)c1ccc(-n2c(N[C@@H](C)c3ccc4[nH]cnc4c3)nc3c(c2=O)C[C@@H](C)N(C(=O)c2ccc(Cl)c(Cl)c2)C3)cc1 (single isomer, unassigned) [Compound C647b] | > 50 µM | > 2.5 µM |  |
| CNC(=O)c1ccc(-n2c(N[C@H](C)c3ccc(C(F)(F)F)c(F)c3)nc3c(c2=O)C[C@@H](C)N(C(=O)c2ccc(Cl)c(Cl)c2)C3)cc1 (single isomer, unassigned) [Compound C659a] | 6.8 µM | 0.12 µM |  |
| CNC(=O)c1ccc(-n2c(N[C@H](C)c3cccc(C(F)F)c3)nc3c(c2=O)C[C@@H](C)N(C(=O)c2ccc(Cl)c(Cl)c2)C3)cc1 (single isomer, unassigned) [Compound C660a] | > 50 µM | 1.3 µM |  |
| CNC(=O)c1ccc(-n2c(N[C@@H](C)c3cccc(C(F)F)c3)nc3c(c2=O)C[C@@H](C)N(C(=O)c2ccc(Cl)c(Cl)c2)C3)cc1 (single isomer, unassigned) [Compound C660b] | 27.5 µM | 0.32 µM |  |
| CNC(=O)c1ccc(-n2c(N[C@H](C)c3ccc(C(F)(F)F)c(Cl)c3)nc3c(c2=O)C[C@@H](C)N(C(=O)c2ccc(Cl)c(Cl)c2)C3)cc1 (single isomer, unassigned) [Compound C664a] | 6.7 µM | 0.13 µM |  |
| CNC(=O)c1ccc(-n2c(N[C@@H](C)c3ccc(C(F)(F)F)c(Cl)c3)nc3c(c2=O)C[C@@H](C)N(C(=O)c2ccc(Cl)c(Cl)c2)C3)cc1 (single isomer, unassigned) [Compound C664b] | > 50 µM | > 2.5 µM |  |
| CNC(=O)c1ccc(-n2c(N[C@H](C)c3cnccn3)nc3c(c2=O)C[C@@H](C)N(C(=O)c2ccc(Cl)c(C(F)(F)F)c2)C3)cc1 (single isomer, unassigned) [Compound C665a] | > 50 µM | 0.49 µM |  |
| CNC(=O)c1ccc(-n2c(N[C@@H](C)c3cnccn3)nc3c(c2=O)C[C@@H](C)N(C(=O)c2ccc(Cl)c(C(F)(F)F)c2)C3)cc1 (single isomer, unassigned) [Compound C665b] | > 50 µM | 0.65 µM |  |
| CNC(=O)c1ccc(-n2c(NC(C)C)nc3c(c2=O)C[C@@H](C)N(C(=O)c2ccc(Cl)c(C(F)(F)F)c2)C3)c(C(F)F)c1 (single isomer, unassigned) [Compound C669a] | 29.8 µM | 0.02 µM |  |

| Structure (SMILES) | CC50 at 3 days (in vitro; [2]) | EC50 [1, 3] | other results |
| --- | --- | --- | --- |
| CC(C)Nc1nc2c(c(=O)n1-c1ccc(C(=O)NC3CC3)cc1Cl)C[C@@H](C)N(C(=O)c1ccc(Cl)c(C(F)(F)F)c1)C2 (single isomer, unassigned) [Compound C673a] | > 25 µM | 0.03 µM |  |
| CNC(=O)c1ccc(-n2c(N[C@@H](C)C3CC3)nc3c(c2=O)C[C@@H](C)N(C(=O)c2ccc(Cl)c(C(F)(F)F)c2)C3)c(Cl)c1 (single isomer, unassigned) [Compound C676a] | > 50 µM | 0.03 µM |  |
| CNC(=O)c1ccc(-n2c(NC(C)(C)C)nc3c(c2=O)C[C@@H](C)N(C(=O)c2ccc(Cl)c(C(F)(F)F)c2)C3)c(Cl)c1 (single isomer, unassigned) [Compound C677a] |  |  | CC50 at 3 days (in vitro; [4]): > 50 µM; EC50 [1, 5]: 0.02 µM |
| CNC(=O)c1ccc(-n2c(NC(C)(C)C)nc3c(c2=O)C[C@@H](C)N(C(=O)c2ccc(Cl)c(C(F)(F)F)c2)C3)c(Cl)c1 (single isomer, unassigned) [Compound C677b] | 24 µM | 0.02 µM |  |
| COc1cc(C(=O)NC2CC2)ccc1-n1c(NC(C)C)nc2c(c1=O)C[C@@H](C)N(C(=O)c1ccc(Cl)c(C(F)(F)F)c1)C2 (single isomer, unassigned) [Compound C678a] | 43 µM | 0.04 µM |  |
| CNC(=O)c1ccc(-n2c(NC(C)C)nc3c(c2=O)C[C@@H](C)N(C(=O)c2ccc(Cl)c(C(F)F)c2)C3)c(Cl)c1 (single isomer, unassigned) [Compound C685a] | > 50 µM | 0.03 µM |  |
| CNC(=O)c1ccc(-n2c(N[C@H](C)c3ccc(F)cc3F)nc3c(c2=O)C[C@@H](C)N(C(=O)c2ccc(Cl)c(Cl)c2)C3)cc1 (single isomer, unassigned) [Compound C689a] | 16.7 µM | 0.2 µM |  |
| CNC(=O)c1ccc(-n2c(N[C@@H](C)c3ccc(F)cc3F)nc3c(c2=O)C[C@@H](C)N(C(=O)c2ccc(Cl)c(Cl)c2)C3)cc1 (single isomer, unassigned) [Compound C689b] | 27.3 µM | 0.46 µM |  |
| CNC(=O)c1ccc(-n2c(N3CC4CC3C4)nc3c(c2=O)C[C@@H](C)N(C(=O)c2ccc(Cl)c(C(F)(F)F)c2)C3)c(Cl)c1 (single isomer, unassigned) [Compound C701a] |  |  | CC50 at 3 days (in vitro; [4]): > 50 µM; EC50 [1, 5]: 0.04 µM |
| COc1ccc(CNc2nc3c(c(=O)n2-c2ccccc2OC)CCN(C(=O)c2ccc(Cl)c(Cl)c2)C3)cc1 [Compound C1, 7-(3,4-dichlorobenzoyl)-3-(2-methoxyphenyl)-2-{[(4-methoxyphenyl)methyl]amino}-5,6,7,8-tetrahydropyrido[3,4-d]pyrimidin-4(3H)-one] |  |  | CC50 at 3 days (in vitro; 3-days incubation (unmarked values), ATPlite): > 50 µM; EC50 [1, 5]: 1.47 µM |
| COc1ccc(CNc2nc3c(c(=O)n2-c2ccccc2OC)CCN(C(=O)c2cc4ccccc4[nH]2)C3)cc1 [Compound C2, 7-(1H-indole-2-carbonyl)-2-((4-methoxybenzyl)amino)-3-(2-methoxyphenyl)-5,6,7,8-tetrahydropyrido[3,4-d]pyrimidin-4(3H)-one] |  |  | CC50 at 4 days (in vitro; ATPlite): > 50 µM; EC50 [1, 5]: 1.75 µM |
| COc1ccc(CNc2nc3c(c(=O)n2-c2ccccc2OC)CCN(C(=O)c2ccc(F)c(Cl)c2)C3)cc1 [Compound C3, 7-(3-chloro-4-fluorobenzoyl)-3-(2-methoxyphenyl)-2-{[(4-methoxyphenyl)methyl]amino}-5,6,7,8-tetrahydropyrido[3,4-d]pyrimidin-4(3H)-one] |  |  | CC50 at 4 days (in vitro; ATPlite): > 50 µM; EC50 [1, 5]: 8.48 µM |
| COc1ccccc1-n1c(SC)nc2c(c1=O)CCN(C(=O)c1ccc(Cl)c(Cl)c1)C2 [Compound C4, 7-(3,4-dichlorobenzoyl)-3-(2-methoxyphenyl)-2-(methylsulfanyl)-5,6,7,8-tetrahydropyrido[3,4-d]pyrimidin-4(3H)-one] |  |  | CC50 at 4 days (in vitro; ATPlite): 36.8 µM; EC50 [1, 5]: 1.79 µM |
| COc1ccccc1-n1c(NCc2ccncc2)nc2c(c1=O)CCN(C(=O)c1ccc(Cl)c(Cl)c1)C2 [Compound C5, 7-(3,4-dichlorobenzoyl)-3-(2-methoxyphenyl)-2-{[(Pyridin-4-yl)methyl]amino}-5,6,7,8-tetrahydropyrido[3,4-d]pyrimidin-4(3H)-one] |  |  | CC50 at 4 days (in vitro; ATPlite): > 50 µM; EC50 [1, 5]: 5.35 µM |
| CSc1nc2c(c(=O)[nH]1)CCN(C(=O)c1ccc(Cl)c(Cl)c1)C2 [Compound C6, 7-(3,4-dichlorobenzoyl)-2-(methylsulfanyl)-5,6,7,8-tetrahydropyrido[3,4-d]pyrimidin-4(3H)-one] |  |  | CC50 at 4 days (in vitro; ATPlite): > 50 µM; EC50 [1, 5]: 16 µM |
| COc1ccc(CNc2nc3c(c(=O)n2-c2cccc(C(F)(F)F)c2)CCN(C(=O)c2ccc(Cl)c(Cl)c2)C3)cc1 [Compound C7, 7-(3,4-dichlorobenzoyl)-2-{[(4-methoxyphenyl)methyl]amino}-3-[3-(trifluoromethyl)phenyl]-5,6,7,8-tetrahydropyrido[3,4-d]pyrimidin-4(3H)-one] |  |  | CC50 at 4 days (in vitro; ATPlite): > 50 µM; EC50 [1, 5]: 2.03 µM |
